One assay has as its system MMP activities. Briefly: Fluorescent substrate assay (FSA) of MMP activity in HDMEC conditioned media. Conditions: concentrated conditioned media from HDMEC cultures +/- PMA; Knight substrate. Type of assay: biochemical, human. As for the experimental part: Replicate hTERT(+)HDMECs (PD30, 60, 90) and primary controls (PD5, PD25) are seeded at equal densities, grown to confluence and switched to EBM media (Clonetics, San Diego, Calif.) containing growth factors, but no serum, for 72 hrs. Media is collected and total protein measured (Pierce, Rockford, Ill.). […] In addition, conditioned media are analyzed by a fluorescent substrate assay (FSA).
The FSA is an assay system for MMP activities based on recently-developed fluorogenic substrates that utilize 7-methoxycoumarin (MOC)-labeled MMP-specific small peptides (“Knight” substrate; Knight CG. Fluorimetric Assays of Proteolytic Enzymes. Met Enzymol 1995, 248:18-34). Release of MOC from the 2,4-dinitrophenyl-quenched peptide by active MMPs results in proportional increases in fluorescence with time. Activities of recombinant MMP-2 and MMP-9 using the Knight substrate were readily detectable and yielded linear initial reaction rates over 10 minutes. Calculated initial rates of hydrolysis of the Knight substrate (4 uM) by MMP-2 (1.2 nM), MMP-9 (1.2 nM), and MMP-2 (0.6 uM) plus MMP-9 (0.6 uM) were 571.1 units/min, 208.2 units/min, and 242 units/min, respectively. […]

Assay [1] has as its system GNMEC1 (eGFP-labeled hTERT(+)HDMEC). Briefly: In vitro angiogenic web formation on Matrigel. Type of assay: cell-based, human. The note with it: GNMEC1 pretreated with COX antagonist, then plated on Matrigel; FIG. 17. Here is the method: Tubule formation on Matrigel. Matrigel (Collaborative Biomedical Products) was placed on ice and allowed to thaw overnight in a darkened cold room or refrigerator. Three hundred fifty microliters of the Matrigel was layered onto a pre-chilled well of a 6-well plate and then placed in an incubator at 37° C. for one half hour for the Matrigel to solidify. About 350,000 cells in M199/15% FBS/10 U/ml heparin/16 ig/ml ECGF were then seeded onto the matrix and allowed to incubate at 37° C., 5% CO2 environment. […] To show the utility of this in vitro system, we pretreated GNMEC1 with two different cyclo-oxygenase (COX) antagonists which are known to block angiogenesis (Jones et al. 1999 Nature Medicine 5:12;1418-23) and then plated the cells on Matrigel. […] The “tubulogenic process” can be followed and quantified utilizing cell lines such as GNMEC1 and digitally-converted fluorescence microscopic images of replicate cultures. Commercially available programs in current use with other cellular applications which maybe used to perform this process include MetaMorph® (Universal Imaging Corporation®, West Chester, Pa.) and the high-throughput imaging systems of Cellomics, Inc. (Pittsburgh, Pa.).

In assay [2] the test system is primary normal human keratinocyte (NHK) cultures. Briefly: Fluorescent substrate assay (FSA) of net MMP activity in keratinocyte conditioned media. Type of assay: cell-based. Conditions: conditioned media of PMA-treated NHK, only after APMA activation. From the text: The FSA is an assay system for MMP activities based on recently-developed fluorogenic substrates that utilize 7-methoxycoumarin (MOC)-labeled MMP-specific small peptides (“Knight” substrate; Knight CG. Fluorimetric Assays of Proteolytic Enzymes. Met Enzymol 1995, 248:18-34). Release of MOC from the 2,4-dinitrophenyl-quenched peptide by active MMPs results in proportional increases in fluorescence with time. Activities of recombinant MMP-2 and MMP-9 using the Knight substrate were readily detectable and yielded linear initial reaction rates over 10 minutes. Calculated initial rates of hydrolysis of the Knight substrate (4 uM) by MMP-2 (1.2 nM), MMP-9 (1.2 nM), and MMP-2 (0.6 uM) plus MMP-9 (0.6 uM) were 571.1 units/min, 208.2 units/min, and 242 units/min, respectively.
Reverse zymography confirmed the presence of TIMPs.

Assay [3] relates to human microvessel formation by GNMEC1. As to the kind of experiment: In vivo human microvascular remodeling assay, GNMEC1 in Matrigel implants in SCID mice. Also noted: species or system human cells in SCID mice. The note with it: agents mixed with GNMEC1 in Matrigel before implantation in SCID mice; FIG. 24-27; preliminary studies. An excerpt: (§1) SCID mice were implanted with Matrigel mixtures containing either b-FGF, primary HDMEC (PD1O) or hTERT(+)HDMEC via subcutaneous injection on ventral thoracic surfaces. Implants were harvested at 2 weeks, sectioned and stained with H&E and anti-human basement membrane Type 4 collagen. […] The presence of red blood cells within these human vessels indicates host vasculature has anastamosed with the human vessels creating murine-human chimeric microvasculature.
All agents were incorporated into Matrigel by mixing cells and agents together before implantation. The effect of continuous exposure at different concentrations was not performed but would be likely to greatly accentuate the results shown in these preliminary studies.

For assay [4], the system named is host murine microvasculature. Briefly: Host vessel invasion of Matrigel implants in SCID mice. Type of assay: in vivo. The note with it: FGF-2 alone in Matrigel, no human EC.
Description: as §1
This procedure is based on a modification of the mouse angiogenesis model previously described^41. Two-three week old male or female SCID mice (Taconic, Germantown, N.Y.) were used as hosts for all implants. […] Passaniti, A. et al. A simple, quantitative method for assessing angiogenesis and antiangiogenic agents using reconstituted basement membrane, heparin, and fibroblast growth factor. […]
(§2) Matrigel implants were removed at 1, 2, 4 and 6 wk following xenografting, fixed in 10% buffered formalin overnight, paraffin-embedded and sectioned. […] For micromorphometry, 5 separate 20×fields were randomly selected per tissue section and the number of annular structures were counted and averaged. […] Passaniti, A. et al. A simple, quantitative method for assessing angiogenesis and antiangiogenic agents using reconstituted basement membrane, heparin, and fibroblast growth factor. […]

The test system of assay [5] is HDMEC-GT derived microvessels. As to the kind of experiment: SCID mice xenografting of HDMEC-GT in Matrigel, human vessel quantification. The class given is in vivo, human cells in SCID mice. The note with it: for human vessel density (human type IV collagen micromorphometry): two weeks after implantation, VEGF 2 μg/ml or FGF-2 150 ng/ml mixed with HDMEC-GT and Matrigel, only FGF-2 significant (p<0.01). Here is the method:
This procedure is based on a modification of the mouse angiogenesis model previously described^41. Two-three week old male or female SCID mice (Taconic, Germantown, N.Y.) were used as hosts for all implants. Primary HDMEC and HDMEC-T were harvested, washed twice and re-suspended in serum-free EGM-2 basal medium at the concentration of 1×10^5/μl. Ten μl of cells were mixed with 0.5 ml of Matrigel on ice and the mixture was implanted in the ventral midline thoracic tissue of each mouse by subcutaneous injection using a #25 needle. Up to three separate injections could be performed on a single mouse. For some experiments, recombinant human VEGF165 (2 μg/ml) (R&D systems, Minneapolis, Minn.) or bovine FGF-2 (150 ng/ml) (R&D systems, Minneapolis, Minn.) were added to the mixture. When tumor cells (HT1080 and 293, ATCC) or primary human dermal fibroblasts 38 were injected, the procedure remained the same except basal DMEM medium replaced EGM-2. 41. Passaniti, A. et al. A simple, quantitative method for assessing angiogenesis and antiangiogenic agents using reconstituted basement membrane, heparin, and fibroblast growth factor. Lab. Invest. 67, 519-528 (1992).
as §2, with “sectioned. H&E stained thin sections were prepared at Pan-insular Histopathology laboratory (Los Gatos, Calif.). For immunofluorescence, thin sections were deparaffinized and antigens retrieved in 10 mM citric acid (pH 6.0) by microwaving sections for 2×7 min.” for “sectioned.”
For digital analysis of eGFP fluorescence images we used a novel algorithm (Moss Filter™) to determine the total amount of vascularization in each implant section. […]

In another assay the test system is hTERT(+) HDMEC (TERT-1). Briefly: Cell surface marker expression after TNF stimulation, TERT-1. The class given is cell-based, human. The note with it: TNFá stimulation for 16 hr. As for the experimental part: (§3) The hTERT(+) HDMEC (TERT-1) line expressed uniformly high PCAM but relatively low levels of ICAM-1 (30%), VCAM-1 (1.3%) and CD34 (19.5%) at baseline. […] The latter result was consistent with experiments performed in support of the present invention that studied the same characteristics of primary HDMEC CD34 expression.
(§4) The antibodies used for flow Cytometry were anti-PECAM (Becton Dickinson), ICAM (Pharmingen), and Apo2.7 (Immunotech). […] For apo 2.7 assay, the cells were treated with TNFá+actinomycin D (AMD), LPS+cycloheximide (CHX), or UV light 16 hours prior to the experiments. One group of cells were serum starved for 40 hours. The cells are incubated with either PE conjugated primary antibody or un-conjugated primary antibody+PE conjugated secondary antibody at 37° C. The data was collected and analyzed with CellQuest (Becton Dickinson) or Coulter EPICS cell sorter.

Another assay deals with primary HDMEC (control). As to the kind of experiment: Cell surface marker expression after TNF stimulation, primary HDMEC. Type of assay: cell-based, human. The note with it: TNFá stimulation for 16 hr. As for the experimental part: as §3, §4

Entries after “also recorded” stand apart in the source; their conditions may differ.

Results on eight compounds are retold here after US20030175961A1, “Immortal micorvascular endothelial cells and uses thereof” (priority 2002, published 2003).

For the compound `c1cnc2c(c1)ccc1cccnc12` [1, 10 phenanthraline, reference compound], in the assay with MMP activities, the “blocking of MMP activities” value is “completely blocked”.

On to `CS(=O)(=O)Nc1ccc([N+](=O)[O-])cc1OC1CCCCC1` [NS-398], for which the “angiogenic web blockade (dose-response curve)” value in assay [1] was “angiogenic web blockade”.

Take `CCCCCCCCCCCCCC(=O)O[C@@H]1[C@@H](C)[C@@]2(O)[C@@H](C=C(CO)C[C@]3(O)C(=O)C(C)=C[C@@H]23)[C@@H]2C(C)(C)[C@]12OC(C)=O` [PMA, reference compound]: the “net MMP activity” value in assay [2] was 10.1 units/min/ug total protein. In addition, the “effect on human microvessel formation in vivo (microvessel density, anti-human Type 4 collagen immuno-micromorphometry)” value in assay [3] is reported as “angiostatic qualities”.

For the compound `COc1ccc2c(c1)c(CC(=O)O)c(C)n2C(=O)c1ccc(Cl)cc1` [indomethacin], the “angiogenic web blockade (dose-response curve)” value in assay [1] is on record as “angiogenic web blockade”.

“FGF-2: bovine FGF-2 (R&D systems), pro-angiogenic factor”: the “effect on human microvessel formation in vivo (microvessel density, anti-human Type 4 collagen immuno-micromorphometry)” value in assay [3] is given as “greatest stimulatory effect”. In addition, the “host vessel invasion of Matrigel implants” value in assay [4] is on record as “marked host vessel invasion; also recorded: stimulated”; in assay [4] (listed as b-FGF) it was “host microvasculature is readily apparent invading”. In addition, the “human vessel density (human type IV collagen micromorphometry)” value in assay [5] is “statistically increased human vessel density”.

As for TNFá, the VCAM-1 expression in the assay on hTERT(+) HDMEC (TERT-1) (TERT-1 (baseline 1.3%)) and in the assay on primary HDMEC (control) (control primary cells) was 41% each time. Moreover, the values for the CD34 expression in the assay on hTERT(+) HDMEC (TERT-1) (TERT-1 (baseline 19.5%)) and in the assay with primary HDMEC (control) (primary cells) were 1.6% and 45%, respectively. The ICAM-1 expression in the assay with hTERT(+) HDMEC (TERT-1) (TERT-1 (baseline 30%)) and in the assay on primary HDMEC (control) (control primary cells) was over 99% in each case.

Regarding VEGF, the “increased vessel density relative to controls” value in assay [5] (VEGF mixed with HDMEC-GT and Matrigel, two weeks, not statistically significant) is listed as 20-30%. The “human vessel density (human type IV collagen micromorphometry)” value in assay [5] is “increased vessel density”.

As for “rTIMP-1: Tissue Inhibitor of Matrix metalloProteinases 1”, the “blocking of MMP activities” value with MMP activities is listed as “partially blocked”.
